In ChEMBL document CHEMBL6087448, “Eradication of Therapy-Resistant Cancer Stem Cells by Novel Telmisartan Derivatives” (J Med Chem, 2025):
Active and inactive are the calls of the source. No cut-off for these calls is given here.

Columns and labels:
A2780/Taxol [1] = experiment: Cytotoxicity against human Paclitaxel-resistant A2780 cells assessed as metabolic activity at 10 nM measured after 72 hrs by MTT assay relative to control; assay type: functional
[2] = system: Paclitaxel-resistant A2780; experiment: Inhibition of STAT5 phosphorylation in human Paclitaxel-resistant A2780 cells expressing ABCB1 at 10 uM incubated for 72 hrs by Western blotting based immunoassay; assay type: cell-based
PBMC [3] = experiment: Effect on colony formation in human PBMC derived from healthy donors at 10 uM measured after 2 weeks in presence of imatinib by inverted microscopic analysis; assay type: functional, cell-based
COS-7 = experiment: Cytotoxicity against African green monkey COS-7 cells assessed as reduction in metabolic activity at 10 uM incubated for 72 hrs by MTT assay; assay type: toxicity, cell-based; conditions: chlorocebus aethiops, cos-7, 72 h
[4] = system: Docetaxel-resistant DU145 cell; experiment: Inhibition of side population phenotype in human Docetaxel-resistant DU145 cell expressing ABCB1 at 10 uM incubated for 90 mins by DCV staining based flow cytometric analysis; assay type: functional
K-562R [5] = experiment: Antitumor activity against human K562-r cells xenografted in female NOD/SCID mouse model assessed as reduction in tumor volume by measuring treatment to control ratio at 10 mg/kg, po co-administered with imatinib once daily and measured after 33 days relative to control; assay type: functional; conditions: time 33 day
A2780/Taxol [6] = experiment: Inhibition of side population phenotype in human Paclitaxel-resistant A2780 cells expressing ABCB1 at 10 uM incubated for 90 mins by DCV staining based flow cytometric analysis; assay type: functional, cell-based
A549 [7] = experiment: Inhibition of STAT5 phosphorylation in human A549 cells at 10 uM incubated for 72 hrs by Western blotting based immunoassay; assay type: cell-based
PBMC [8] = experiment: Inhibition of colony formation in human PBMC derived from TKI naive CML patients assessed as reduction in number of colonies at 1 uM incubated for 14 days in presence of imatinib by inverted microscopic analysis; assay type: functional, cell-based; conditions: time 14.0 day
K562-r [9] = experiment: Effect on STAT5 phosphorylation in human K562-r cells at 4 uM measured after 6 hrs by Western blotting based immunoassay; assay type: cell-based
K-562R [10] = experiment: Cytotoxicity against human K562-r cells assessed as reduction in metabolic activity at 10 uM incubated for 72 hrs by MTT assay; assay type: functional, cell-based
K562-r [11] = experiment: Inhibition of STAT5 phosphorylation in human K562-r cells at 4 uM measured after 6 hrs in presence of imatinib by Western blotting based immunoassay; assay type: cell-based
[12] = system: Paclitaxel-resistant IGROV-1 cell; experiment: Inhibition of STAT5 phosphorylation in human Paclitaxel-resistant IGROV-1 cells expressing ABCB1 at 10 uM incubated for 72 hrs by Western blotting based immunoassay
[13] = Toxicity in female NOD/SCID mouse xenografted with human K562-r cells assessed as body weight loss at 10 mg/kg, po administered once daily for 30 days; assay type: organism-based; conditions: in vivo, 720 h, time 30 day
K-562R [14] = experiment: Antitumor activity against human K562-r cells xenografted in female NOD/SCID mouse model assessed as reduction in tumor volume at 10 mg/kg, po co-administered with imatinib once daily and measured after 15 to 26 days; assay type: functional, organism-based; conditions: time 15-26 day
[15] = system: Docetaxel-resistant DU145 cell; experiment: Enhancement of docetaxel-induced anti-metabolic activity against human Docetaxel-resistant DU145 cell assessed as reduction in metabolic activity at 10 uM measured after 72 hrs by MTT assay; assay type: functional, cell-based
MCF7 [16] = experiment: Inhibition of side population phenotype in human MCF7 cells expressing ABCG2 at 10 uM incubated for 90 mins by DCV staining based flow cytometric analysis; assay type: functional, cell-based
A2780/Taxol [17] = experiment: Sensitization of paclitaxel-induced cytotoxicity against human Paclitaxel-resistant A2780 cells assessed as reduction in metabolic activity at 10 uM measured after 72 hrs by MTT assay; assay type: functional, cell-based
K-562R [18] = experiment: Antitumor activity against human K562-r cells xenografted in female NOD/SCID mouse model assessed as tumor growth inhibition at 10 mg/kg, po administered once daily for 30 days; assay type: functional, organism-based; conditions: time 30.0 day
K-562R [19] = experiment: Effect on ABCB1 protein expression in human K562-r cells at 4 uM incubated for 72 hrs by Western blotting based immunoassay; assay type: functional, cell-based
[20] = system: Docetaxel-resistant PC-3 cell; experiment: Enhancement of docetaxel-induced anti-metabolic activity against human Docetaxel-resistant PC-3 cell assessed as reduction in metabolic activity at 10 uM measured after 72 hrs by MTT assay; assay type: functional, cell-based
PBMC [21] = experiment: Effect on colony formation in human PBMC derived from healthy donors at 10 uM measured after 2 weeks by inverted microscopic analysis; assay type: functional, cell-based
MCF7 [22] = experiment: Effect on STAT5 protein expression in human MCF7 cells at 10 uM incubated for 72 hrs by Western blotting based immunoassay; assay type: functional, cell-based
A549 [23] = experiment: Inhibition of side population phenotype in human A549 cells expressing ABCC1 at 10 uM incubated for 90 mins by DCV staining based flow cytometric analysis; assay type: functional, cell-based
A549 [24] = experiment: Effect on STAT5 protein expression in human A549 cells at 10 uM incubated for 72 hrs by Western blotting based immunoassay; assay type: functional, cell-based
[25] = system: Paclitaxel-resistant IGROV-1 cell; experiment: Inhibition of side population phenotype in human Paclitaxel-resistant IGROV-1 cells expressing ABCB1 at 10 uM incubated for 90 mins by DCV staining based flow cytometric analysis; assay type: functional
[26] = Toxicity in female NOD/SCID mouse xenografted with human K562-r cells assessed as body weight loss at 10 mg/kg, po co-administered with imatinib once daily for 30 days; assay type: organism-based; conditions: in vivo, 720 h, time 30 day
K-562R [27] = experiment: Restoration of imatinib accumulation in human K562-r cells at 10 uM preincubated with compound for 1 hrs followed by imatinib addition and measured after 2 hrs by UHPLC-SIM-MS analysis; assay type: functional, cell-based; conditions: time 3.0 hrs
[28] = system: Docetaxel-resistant PC-3 cell; experiment: Inhibition of side population phenotype in human Docetaxel-resistant PC-3 cell expressing ABCB1 at 10 uM incubated for 90 mins by DCV staining based flow cytometric analysis; assay type: functional
K562-r [29] = experiment: Inhibition of STAT5 phosphorylation in human K562-r cells at 4 uM measured after 72 hrs by Western blotting based immunoassay; assay type: cell-based
K-562R [30] = experiment: Antitumor activity against human K562-r cells xenografted in female NOD/SCID mouse model assessed as tumor growth inhibition at 10 mg/kg, po co-administered with imatinib once daily for 30 days; assay type: functional, organism-based; conditions: time 30.0 day
A2780/Taxol [31] = experiment: Effect on STAT5 protein expression in human Paclitaxel-resistant A2780 cells expressing ABCB1 at 10 uM incubated for 72 hrs by Western blotting based immunoassay; assay type: functional, cell-based
MCF7 [32] = experiment: Inhibition of STAT5 phosphorylation in human MCF7 cells at 10 uM incubated for 72 hrs by Western blotting based immunoassay; assay type: cell-based
[33] = Inhibition of side population phenotype in human K562-r cells at 10 uM incubated for 90 mins by DCV staining based flow cytometric analysis relative to control; assay type: functional; conditions: K-562R
[34] = Toxicity in female NOD/SCID mouse xenografted with human K562-r cells assessed as body weight loss at 50 mg/kg, po administered once daily for 30 days; assay type: organism-based; conditions: in vivo, 720 h, time 30 day
K-562R [35] = experiment: Antitumor activity against human K562-r cells xenografted in female NOD/SCID mouse model assessed as tumor growth inhibition at 50 mg/kg, po administered once daily for 30 days; assay type: functional, organism-based; conditions: time 30.0 day

`CC(=O)O[C@H]1C(=O)[C@@]2(C)[C@H]([C@H](OC(=O)c3ccccc3)[C@]3(O)C[C@H](OC(=O)[C@H](O)[C@@H](NC(=O)c4ccccc4)c4ccccc4)C(C)=C1C3(C)C)[C@]1(OC(C)=O)CO[C@@H]1C[C@@H]2O` [PACLITAXEL] gave an Activity (A2780/Taxol [1]) of over 80%.

With `CCCc1nc2c(C)cc(-c3nc4ccccc4n3C)cc2n1Cc1ccc(-c2ccccc2C(N)=O)cc1` the inhibition [2] was “Active”, the Activity (PBMC [3]) was “inactive” and the Activity (COS-7) was “Non-toxic”. For the same compound, the inhibition [4] was “Active”, the T/C (K-562R [5]) was 36% and the inhibition (A2780/Taxol [6]) was “Active”. The inhibition (A549 [7]) was “Active”, the inhibition (PBMC [8]) was “Active” and the Activity (K562-r [9]) was “inactive”. The Activity (K-562R [10]) was “inactive”, the inhibition (K562-r [11]) was “Active” and the inhibition [12] was “Active”. For the same compound, the Activity [13] was “Non-toxic”, the Activity (K-562R [14]) was “Active” and the Activity [15] was “Active”. For the same compound, the inhibition (MCF7 [16]) was “Active”, the Activity (A2780/Taxol [17]) was “Active” and the Activity (K-562R [18]) was “Active”. The Activity (K-562R [19]) was “inactive”, the Activity [20] was “Active” and the Activity (PBMC [21]) was “inactive”. For the same compound, the Activity (MCF7 [22]) was “inactive”, the inhibition (A549 [23]) was “Active” and the Activity (A549 [24]) was “inactive”. The inhibition [25] was “Active”, the Activity [26] was “Non-toxic” and the Activity (K-562R [27]) was “Active”. The inhibition [28] was “Active”, the inhibition (K562-r [29]) was “Active; Lesser Effect Observed” and the Activity (K-562R [30]) was “Active; Strongest Inhibition Observed”. The Activity (A2780/Taxol [31]) was “inactive”, the inhibition (MCF7 [32]) was “Active” and the inhibition at 10 µM [33] was 100%.

With `Cc1ccc(NC(=O)c2ccc(CN3CCN(C)CC3)cc2)cc1Nc1nccc(-c2cccnc2)n1` [IMATINIB] the Activity [34] was “Non-toxic” and the Activity (K-562R [35]) was “Active”.
